Reference: US11395489B2, “Microbiocidal picolinamide derivatives” (Syngenta Participations AG, priority 2017, dated 2022)

Columns and labels:
[1] = test system: Mycosphaerella Raminicola (Septoria tritici); experiment: Mycosphaerella Raminicola (Septoria tritici) / liquid culture (Septoria Blotch); assay type: cell-based; conditions: 200 ppm in the formulation, inhibition of growth determined photometrically 4 to 5 days after application, read-out: disease control
Experimental: (§1) Mycosphaerella Raminicola (Septoria tritici)/Liquid Culture (Septoria Blotch) Conidia of the fungus from cryogenic storage are directly mixed into nutrient broth (PDB potato dextrose broth). After placing a (DMSO) solution of test compound into a microtiter plate (96-well format), the nutrient broth containing the fungal spores is added. The test plates are incubated at 24° C. and the inhibition of growth is determined photometrically 4 to 5 days after application.

[2] = test system: Mycosphaerella arachidis (Cercospora arachidicola); experiment: Mycosphaerella arachidis (Cercospora arachidicola) / liquid culture (Early Leaf Spot); assay type: cell-based; conditions: 96 h, 200 ppm in the formulation, inhibition of growth determined photometrically 4-5 days after application, read-out: disease control
Experimental: as §1, with “arachidis (Cercospora arachidicola)/Liquid” for “Raminicola (Septoria tritici)/Liquid”, “(Early Leaf Spot)” for “(Septoria Blotch)”, “4-5” for “4 to 5”

[3] = test system: Magnaporthe risea (Pyricularia Oryzae); experiment: whole plant or invertebrate; assay type: in vivo; conditions: foliar, read-out: disease control
[4] = test system: Botryotinia fuckeliana (Botrytis cinerea); experiment: Botryotinia fuckeliana (Botrytis cinerea) / liquid culture (Gray Mould); assay type: cell-based; conditions: 72 h, 200 ppm in the formulation, inhibition of growth determined photometrically 3-4 days after application, read-out: disease control
Experimental: as §1, with “Botryotinia fuckeliana (Botrytis cinerea)/Liquid” for “Mycosphaerella Raminicola (Septoria tritici)/Liquid”, “(Gray Mould)” for “(Septoria Blotch)”, “(Vogels” for “(PDB potato dextrose”, “3-4” for “4 to 5”

[5] = test system: Monocraphella nivalis (Microdochium nivale); experiment: Monocraphella nivalis (Microdochium nivale) / liquid culture (Foot Rot Cereals); assay type: cell-based; conditions: 96 h, 200 ppm in the formulation, inhibition of growth determined photometrically 4-5 days after application, read-out: disease control
Experimental: as §1, with “Monocraphella nivalis (Microdochium nivale)/Liquid” for “Mycosphaerella Raminicola (Septoria tritici)/Liquid”, “(Foot Rot Cereals)” for “(Septoria Blotch)”, “4-5” for “4 to 5”

[6] = test system: Puccinia recondita f. Sp. Tritici; experiment: Puccinia recondita f. sp. tritici / wheat / leaf disc preventative (Brown Rust); assay type: in vivo; conditions: foliar, 168 h, 200 ppm in the formulation, compared to untreated, 7-9 days after application, read-out: disease control
[7] = test system: Phaeosphaeria Nodorum (Septoria nodorum); experiment: Phaeosphaeria nodorum (Septoria nodorum) / wheat / leaf disc preventative (Glume Blotch); assay type: in vivo; conditions: Parastagonospora nodorum, foliar, 200 ppm in the formulation, compared to untreated, 5-7 days after application, read-out: disease control
Experimental: Phaeosphaeria Nodorum (Septoria nodorum)/Wheat/Leaf Disc Preventative (Glume Blotch) Wheat leaf segments cv. Kanzler are placed on agar in a multiwell plate (24-well format) and sprayed with the formulated test compound diluted in water. The leaf disks are inoculated with a spore suspension of the fungus 2 days after application. The inoculated test leaf disks are incubated at 20° C. and 75% rh under a light regime of 12 h light/12 h darkness in a climate cabinet and the activity of a compound is assessed as percent disease control compared to untreated when an appropriate level of disease damage appears in untreated check leaf disks (5-7 days after application).

[8] = test system: Glomerella lacenarium (Colletotrichum lacenarium); experiment: Glomerella lacenarium (Colletotrichum lacenarium) / liquid culture (Anthracnose); assay type: cell-based; conditions: 200 ppm in the formulation, inhibition of growth measured photometrically 3-4 days after application, read-out: disease control
Experimental: as §1, with “Glomerella lacenarium (Colletotrichum lacenarium)/Liquid” for “Mycosphaerella Raminicola (Septoria tritici)/Liquid”, “(Anthracnose)” for “(Septoria Blotch)”, “measured” for “determined”, “3-4” for “4 to 5”

COc1ccnc(C(=O)N[C@@H](C)C(=O)OC(C)C2(c3ccc(Cl)cc3)CCC2)c1O (stereo partly drawn) [I.k.012, 1-[1-(4-chlorophenyl)-cyclobutyl]ethyl (2S)-2-((3-hydroxy-4-methoxy-pyridine-2-carbonyl)-amino]propanoate]
≥ 80%: inhibition of growth at 200 ppm [1] | inhibition of growth at 200 ppm [2] | pest or weed control at 200 ppm [3] | inhibition of growth at 200 ppm [4] | inhibition of growth at 200 ppm [5] | pest or weed control at 200 ppm [6] | pest or weed control at 200 ppm [7] | inhibition of growth at 200 ppm [8]

COc1ccnc(C(=O)N[C@@H](C)C(=O)OC(C)C(C)(C)c2ccc(Br)cc2)c1O (stereo partly drawn) [I.m.001, [2-(4-bromophenyl)-1,2-dimethyl-propyl] (2S)-2-[(3-hydroxy-4-methoxy-pyridine-2-carbonyl)amino]propanoate]
≥ 80%: inhibition of growth at 200 ppm [1] | inhibition of growth at 200 ppm [2] | inhibition of growth at 200 ppm [4] | inhibition of growth at 200 ppm [5] | pest or weed control at 200 ppm [6] | pest or weed control at 200 ppm [7] | inhibition of growth at 200 ppm [8]

COc1ccnc(C(=O)N[C@@H](C)C(=O)OC(C)C2(c3ccc(Cl)cc3)CCCCC2)c1OC(C)=O (stereo partly drawn) [I.k.075, 1-[1-(4-chlorophenyl)-cyclohexyl]ethyl (2S)-2-[(3-acetoxy-4-methoxy-pyridine-2-carbonyl)-amino]propanoate]
≥ 80%: inhibition of growth at 200 ppm [1] | inhibition of growth at 200 ppm [2] | pest or weed control at 200 ppm [3] | pest or weed control at 200 ppm [6] | pest or weed control at 200 ppm [7] | inhibition of growth at 200 ppm [8]

COc1ccnc(C(=O)N[C@@H](C)C(=O)OC(C)C(C)(C)c2cc(F)ccc2F)c1O (stereo partly drawn) [I.ah.001, [2-(2,5-difluoro-phenyl)-1,2-dimethyl-propyl] (2S)-2-[(3-hydroxy-4-methoxy-pyridine-2-carbonyl)-amino]propanoate]
≥ 80%: inhibition of growth at 200 ppm [1] | inhibition of growth at 200 ppm [2] | pest or weed control at 200 ppm [3] | inhibition of growth at 200 ppm [5] | pest or weed control at 200 ppm [6] | pest or weed control at 200 ppm [7] | inhibition of growth at 200 ppm [8]

COc1ccnc(C(=O)N[C@@H](C)C(=O)OC(C)C2(c3cccc4ccccc34)CC2)c1OC(C)=O (stereo partly drawn) [I.v.066, 1-[1-(1-naphthyl)cyclo-propyl]ethyl (2S)-2-[(3-acetoxy-4-methoxy-pyridine-2-carbonyl)-amino]propanoate]
≥ 80%: inhibition of growth at 200 ppm [1] | inhibition of growth at 200 ppm [2] | pest or weed control at 200 ppm [3] | inhibition of growth at 200 ppm [4] | inhibition of growth at 200 ppm [5] | pest or weed control at 200 ppm [6] | pest or weed control at 200 ppm [7] | inhibition of growth at 200 ppm [8]

COc1ccnc(C(=O)N[C@@H](C)C(=O)OC(C)C2(c3ccc(Cl)cc3)CCCCC2)c1O (stereo partly drawn) [I.k.015, 1-[1-(4-chlorophenyl)-cyclohexyl]ethyl (2S)-2-[(3-hydroxy-4-methoxy-pyridine-2-carbonyl)amino]propanoate]
≥ 80%: inhibition of growth at 200 ppm [1] | inhibition of growth at 200 ppm [2] | inhibition of growth at 200 ppm [4] | inhibition of growth at 200 ppm [5] | pest or weed control at 200 ppm [6] | pest or weed control at 200 ppm [7] | inhibition of growth at 200 ppm [8]

COc1ccnc(C(=O)N[C@@H](C)C(=O)OC(C)C2(c3ccccc3)CCCCC2)c1O (stereo partly drawn) [I.a.015, 1-(1-phenylcyclohexyl)-ethyl (2S)-2-[(3-hydroxy-4-methoxy-pyridine-2-carbonyl)amino]propanoate]
≥ 80%: inhibition of growth at 200 ppm [1] | inhibition of growth at 200 ppm [2] | inhibition of growth at 200 ppm [4] | inhibition of growth at 200 ppm [5] | pest or weed control at 200 ppm [6] | pest or weed control at 200 ppm [7] | inhibition of growth at 200 ppm [8]

COc1ccnc(C(=O)N[C@@H](C)C(=O)OC(C)C2(c3ccccc3)CC2c2ccccc2)c1O (stereo partly drawn) [I.a.010, 1-(1,2-diphenylcyclo-propyl)ethyl (2S)-2-[(3-hydroxy-4-methoxy-pyridine-2-carbonyl)-amino]propanoate]
≥ 80%: inhibition of growth at 200 ppm [1] | inhibition of growth at 200 ppm [2] | pest or weed control at 200 ppm [3] | inhibition of growth at 200 ppm [4] | inhibition of growth at 200 ppm [5] | pest or weed control at 200 ppm [6] | pest or weed control at 200 ppm [7] | inhibition of growth at 200 ppm [8]
